Among the data in the supplement of paper PMC10307832 are relative viability values, retold here.

Common to all, as to test: relative viability (nuclei count vs DMSO), 5 days (fraction); higher = more cells survive
Compound in the experiment “TGX 221 + Palbociclib”: CC1=CN2C(=O)C=C(N=C2C(=C1)C(C)NC3=CC=CC=C3)N4CCOCC4 [TGX 221] + CC(=O)c1c(C)c2cnc(Nc3ccc(N4CCNCC4)cn3)nc2n(C2CCCC2)c1=O [Palbociclib] (partner 0.5 µM)
The method in brief: (§1)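 Lung cancer cell lines, seeded in 1536-well plates, were treated the following day by pin tool with a single drug or with five library-drug doses (not always all listed) in √10 steps on top of a fixed anchor-drug dose. Cells were fixed and nuclei stained in one step after 5 days, and nuclei were counted. Relative viability is the nuclei count for treated wells divided by that for vehicle wells, reported as medians of duplicate plates.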

Compound in the experiment “TGX 221 + Navitoclax”: CC1=CN2C(=O)C=C(N=C2C(=C1)C(C)NC3=CC=CC=C3)N4CCOCC4 [TGX 221] + CC1(C)CCC(c2ccc(Cl)cc2)=C(CN2CCN(c3ccc(C(=O)NS(=O)(=O)c4ccc(N[C@H](CCN5CCOCC5)CSc5ccccc5)c(S(=O)(=O)C(F)(F)F)c4)cc3)CC2)C1 [Navitoclax] (partner 0.5 µM)
The method in brief: as §1

Compound in experiment [1]: C1=CC=C(C(=C1)C2=CC=C(C=C2)C3=CSC4=C3C(=C(C(=O)N4)C#N)O)O + Cc1nc(Nc2ncc(C(=O)Nc3c(C)cccc3Cl)s2)cc(N2CCN(CCO)CC2)n1 [Dasatinib] (partner 0.075 µM)
The method in brief: as §1

Compound in the experiment “Ricolinostat + AZD7762”: O=C(CCCCCCNC(=O)c1cnc(N(c2ccccc2)c2ccccc2)nc1)NO [Ricolinostat] + NC(=O)Nc1cc(-c2cccc(F)c2)sc1C(=O)N[C@H]1CCCNC1 [AZD7762] (partner 0.2 µM)
The method in brief:
as §1

As for NCI-H1944, the relative viability amounted to 0.327 with TGX 221 + Palbociclib (first compound 0.253 µM); 0.332 with TGX 221 + Palbociclib (first compound 0.8 µM); 0.277 with TGX 221 + Palbociclib (first compound 2.53 µM); 0.245 with TGX 221 + Palbociclib (first compound 8 µM); 0.981 in the experiment with TGX 221 + Navitoclax (first compound 0.08 µM); 1.02 in the experiment with TGX 221 + Navitoclax (first compound 0.253 µM). Besides, the relative viability was found to be 1 with TGX 221 + Navitoclax (first compound 0.8 µM); 0.943 with TGX 221 + Navitoclax (first compound 2.53 µM); 0.841 with TGX 221 + Navitoclax (first compound 8 µM); 0.224 in experiment [1] (first compound 0.08 µM); 0.248 in experiment [1] (first compound 0.253 µM); 0.219 in experiment [1] (first compound 0.8 µM). For the same cell line, the relative viability amounted to 0.178 in experiment [1] (first compound 2.53 µM); 0.215 in experiment [1] (first compound 8 µM); 0.463 in the experiment with Ricolinostat + AZD7762 (first compound 0.08 µM); 0.483 in the experiment with Ricolinostat + AZD7762 (first compound 0.253 µM); 0.354 with Ricolinostat + AZD7762 (first compound 0.8 µM); 0.21 with Ricolinostat + AZD7762 (first compound 2.53 µM).

In the case of NCI-H1975, the relative viability in the experiment with TGX 221 + Palbociclib (first compound 0.08 µM) was determined as 0.532; with TGX 221 + Palbociclib (first compound 0.253 µM) it was 0.558; with TGX 221 + Palbociclib (first compound 0.8 µM), 0.629; with TGX 221 + Palbociclib (first compound 2.53 µM) it was 0.452; in the experiment with TGX 221 + Palbociclib (first compound 8 µM), 0.526; with TGX 221 + Navitoclax (first compound 0.08 µM), 1.03. Moreover, the relative viability came to 1.13 with TGX 221 + Navitoclax (first compound 0.253 µM); 0.989 with TGX 221 + Navitoclax (first compound 0.8 µM); 0.903 in the experiment with TGX 221 + Navitoclax (first compound 2.53 µM); 0.805 in the experiment with TGX 221 + Navitoclax (first compound 8 µM); 0.327 in experiment [1] (first compound 0.08 µM); 0.369 in experiment [1] (first compound 0.253 µM). In addition, the relative viability in experiment [1] (first compound 0.8 µM) is 0.345; in experiment [1] (first compound 2.53 µM) it was 0.333; in experiment [1] (first compound 8 µM) it was 0.37; with Ricolinostat + AZD7762 (first compound 0.08 µM), 0.66; with Ricolinostat + AZD7762 (first compound 0.253 µM), 0.768; in the experiment with Ricolinostat + AZD7762 (first compound 0.8 µM) it was 0.592. For the same cell line, the relative viability with Ricolinostat + AZD7762 (first compound 2.53 µM) was 0.705.

For the cell line NCI-H1993, the relative viability with TGX 221 + Palbociclib (first compound 0.08 µM) was 0.54; with TGX 221 + Palbociclib (first compound 0.253 µM) it was 0.607; with TGX 221 + Palbociclib (first compound 0.8 µM), 0.54; in the experiment with TGX 221 + Palbociclib (first compound 2.53 µM) it was 0.519; with TGX 221 + Palbociclib (first compound 8 µM), 0.459; with TGX 221 + Navitoclax (first compound 0.08 µM), 0.761. For the same cell line, the relative viability worked out at 0.848 in the experiment with TGX 221 + Navitoclax (first compound 0.253 µM); 0.884 with TGX 221 + Navitoclax (first compound 0.8 µM); 0.831 with TGX 221 + Navitoclax (first compound 2.53 µM); 0.82 in the experiment with TGX 221 + Navitoclax (first compound 8 µM); 0.619 in experiment [1] (first compound 0.08 µM); 0.701 in experiment [1] (first compound 0.253 µM). In addition, the relative viability in experiment [1] (first compound 0.8 µM) was 0.596; in experiment [1] (first compound 2.53 µM) it was 0.544; in experiment [1] (first compound 8 µM) it was 0.549; with Ricolinostat + AZD7762 (first compound 0.08 µM) it was 0.53; with Ricolinostat + AZD7762 (first compound 0.253 µM), 0.884; with Ricolinostat + AZD7762 (first compound 0.8 µM) it was 0.55. Moreover, in the experiment with Ricolinostat + AZD7762 (first compound 2.53 µM), the relative viability worked out at 0.459.

As to NCI-H2085, the relative viability worked out at 0.506 with TGX 221 + Palbociclib (first compound 0.08 µM); 0.481 with TGX 221 + Palbociclib (first compound 0.253 µM); 0.43 with TGX 221 + Palbociclib (first compound 0.8 µM); 0.35 with TGX 221 + Palbociclib (first compound 2.53 µM); 0.291 with TGX 221 + Palbociclib (first compound 8 µM); 1.11 in the experiment with TGX 221 + Navitoclax (first compound 0.08 µM). Further, the relative viability stood at 0.978 in the experiment with TGX 221 + Navitoclax (first compound 0.253 µM); 0.951 with TGX 221 + Navitoclax (first compound 0.8 µM); 0.622 with TGX 221 + Navitoclax (first compound 2.53 µM); 0.626 in the experiment with TGX 221 + Navitoclax (first compound 8 µM); 0.22 in experiment [1] (first compound 0.08 µM); 0.264 in experiment [1] (first compound 0.253 µM). The relative viability was found to be 0.238 in experiment [1] (first compound 0.8 µM); 0.224 in experiment [1] (first compound 2.53 µM); 0.258 in experiment [1] (first compound 8 µM); 0.912 in the experiment with Ricolinostat + AZD7762 (first compound 0.253 µM); 0.934 with Ricolinostat + AZD7762 (first compound 0.8 µM); 0.784 with Ricolinostat + AZD7762 (first compound 2.53 µM).

As to NCI-H2087, the relative viability with TGX 221 + Palbociclib (first compound 0.08 µM) was found to be 0.214; with TGX 221 + Palbociclib (first compound 0.253 µM), 0.234; with TGX 221 + Palbociclib (first compound 0.8 µM) it was 0.237; with TGX 221 + Palbociclib (first compound 2.53 µM), 0.21; with TGX 221 + Palbociclib (first compound 8 µM) it was 0.248; in the experiment with TGX 221 + Navitoclax (first compound 0.08 µM), 0.989. The relative viability in the experiment with TGX 221 + Navitoclax (first compound 0.253 µM) worked out at 0.898; with TGX 221 + Navitoclax (first compound 0.8 µM), 1.06; in the experiment with TGX 221 + Navitoclax (first compound 2.53 µM), 0.945; in the experiment with TGX 221 + Navitoclax (first compound 8 µM), 0.952; in experiment [1] (first compound 0.08 µM), 0.67; in experiment [1] (first compound 0.253 µM), 0.878. Also, the relative viability was 0.969 in experiment [1] (first compound 0.8 µM); 0.925 in experiment [1] (first compound 2.53 µM); 0.703 in experiment [1] (first compound 8 µM); 1.24 in the experiment with Ricolinostat + AZD7762 (first compound 0.08 µM); 1.27 with Ricolinostat + AZD7762 (first compound 0.253 µM); 1.07 with Ricolinostat + AZD7762 (first compound 0.8 µM). In addition, the relative viability with Ricolinostat + AZD7762 (first compound 2.53 µM) amounted to 0.973.

For the cell line NCI-H2126, the relative viability with TGX 221 + Palbociclib (first compound 0.08 µM) amounted to 0.348; with TGX 221 + Palbociclib (first compound 0.253 µM), 0.341; with TGX 221 + Palbociclib (first compound 0.8 µM), 0.342; with TGX 221 + Palbociclib (first compound 2.53 µM) it was 0.354; in the experiment with TGX 221 + Palbociclib (first compound 8 µM), 0.308; with TGX 221 + Navitoclax (first compound 0.08 µM), 0.831. For the same cell line, the relative viability was determined as 0.835 with TGX 221 + Navitoclax (first compound 0.253 µM); 0.837 in the experiment with TGX 221 + Navitoclax (first compound 0.8 µM); 0.752 with TGX 221 + Navitoclax (first compound 2.53 µM); 0.817 with TGX 221 + Navitoclax (first compound 8 µM); 0.588 in experiment [1] (first compound 0.08 µM); 0.573 in experiment [1] (first compound 0.253 µM). In addition, the relative viability in experiment [1] (first compound 0.8 µM) came to 0.604; in experiment [1] (first compound 2.53 µM) it was 0.45; in experiment [1] (first compound 8 µM) it was 0.568; with Ricolinostat + AZD7762 (first compound 0.08 µM) it was 0.865; with Ricolinostat + AZD7762 (first compound 0.253 µM), 1.04; in the experiment with Ricolinostat + AZD7762 (first compound 0.8 µM), 0.971. In the experiment with Ricolinostat + AZD7762 (first compound 2.53 µM), the relative viability was 0.887.

With NCI-H2170, the relative viability came out at 0.332 in the experiment with TGX 221 + Palbociclib (first compound 0.08 µM); 0.423 with TGX 221 + Palbociclib (first compound 0.253 µM); 0.393 in the experiment with TGX 221 + Palbociclib (first compound 0.8 µM); 0.365 with TGX 221 + Palbociclib (first compound 2.53 µM); 0.334 in the experiment with TGX 221 + Palbociclib (first compound 8 µM); 0.572 in the experiment with TGX 221 + Navitoclax (first compound 0.08 µM). In addition, the relative viability in the experiment with TGX 221 + Navitoclax (first compound 0.253 µM) amounted to 0.64; with TGX 221 + Navitoclax (first compound 0.8 µM), 0.594; in the experiment with TGX 221 + Navitoclax (first compound 2.53 µM), 0.541; with TGX 221 + Navitoclax (first compound 8 µM), 0.51; in experiment [1] (first compound 0.08 µM), 0.486; in experiment [1] (first compound 0.253 µM), 0.514. Besides, the relative viability in experiment [1] (first compound 0.8 µM) was determined as 0.662; in experiment [1] (first compound 2.53 µM), 0.635; in experiment [1] (first compound 8 µM), 0.691; with Ricolinostat + AZD7762 (first compound 0.08 µM), 0.815; in the experiment with Ricolinostat + AZD7762 (first compound 0.253 µM) it was 0.858; with Ricolinostat + AZD7762 (first compound 0.8 µM), 1.01. Moreover, the relative viability with Ricolinostat + AZD7762 (first compound 2.53 µM) came out at 0.928.
